These are literature values, as cited in US20100047176A1, “Method and Kit for Testing Stress Effects in Living Organisms” (AARHUS UNIVERSITET, priority 2007, published 2010).

Molecules are shown by their SMILES. ≈ marks a conversion by molar mass, not a printed value.

The test system of data set [1] is fish and aquatic invertebrates. The following applies: if it reaches water bodies.
For data set [2] the following is noted: at 25° C.

Consider `CCC(CC)Nc1c([N+](=O)[O-])cc(C)c(C)c1[N+](=O)[O-]` [Pendimethalin], for which the “toxicity to fish / aquatic invertebrates” value in data set [1] is recorded as “toxic to fish”.
With `O=C(O)CNCP(=O)(O)O` [Glyphosate], the water solubility in data set [2] was 11.6 mg/mL (≈ 68.6 mM).
